Experimental data taken from PubChem BioAssay (NCI).
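Tested at 5 concentrations; 48 h exposure; 96-well plates; endpoints linearly interpolated, else capped at highest concentration. The concentration for full growth arrest is given as TGI.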

Columns and labels:
Assay in all cases: NCI-60 cell line screen, 48 h
786-0 renal = test system: 786-0 renal
A498 renal = test system: A498 renal
A549 NSCLC = test system: A549 NSCLC
ACHN renal = test system: ACHN renal
BT-549 breast = test system: BT-549 breast
CAKI-1 renal = test system: CAKI-1 renal
COLO 205 colon = test system: COLO 205 colon
EKVX NSCLC = test system: EKVX NSCLC
HCC-2998 colon = test system: HCC-2998 colon
HCT-116 colon = test system: HCT-116 colon
HCT-15 colon = test system: HCT-15 colon
HOP-62 NSCLC = test system: HOP-62 NSCLC
HOP-92 NSCLC = test system: HOP-92 NSCLC
HS 578T breast = test system: HS 578T breast
HT29 colon = test system: HT29 colon
IGROV1 ovarian = test system: IGROV1 ovarian
K-562 leukemia = test system: K-562 leukemia
KM12 colon = test system: KM12 colon
LOX IMVI melanoma = test system: LOX IMVI melanoma
M14 melanoma = test system: M14 melanoma
MALME-3M melanoma = test system: MALME-3M melanoma
MCF7 breast = test system: MCF7 breast
MDA-MB-231 breast = test system: MDA-MB-231 breast
MDA-MB-435 = test system: MDA-MB-435
MDA-N = test system: MDA-N
NCI-H226 lung = test system: NCI-H226 lung
NCI-H23 lung = test system: NCI-H23 lung
NCI-H460 lung = test system: NCI-H460 lung
NCI-H522 lung = test system: NCI-H522 lung
NCI/ADR-RES ovarian = test system: NCI/ADR-RES ovarian
OVCAR-3 ovarian = test system: OVCAR-3 ovarian
OVCAR-4 ovarian = test system: OVCAR-4 ovarian
OVCAR-5 ovarian = test system: OVCAR-5 ovarian
OVCAR-8 ovarian = test system: OVCAR-8 ovarian
PC-3 prostate = test system: PC-3 prostate
RPMI-8226 leukemia = test system: RPMI-8226 leukemia
RXF 393 renal = test system: RXF 393 renal
SF-268 CNS = test system: SF-268 CNS
SF-295 CNS = test system: SF-295 CNS
SF-539 CNS = test system: SF-539 CNS
SK-MEL-2 melanoma = test system: SK-MEL-2 melanoma
SK-MEL-28 melanoma = test system: SK-MEL-28 melanoma
SK-MEL-5 melanoma = test system: SK-MEL-5 melanoma
SK-OV-3 ovarian = test system: SK-OV-3 ovarian
SN12C renal = test system: SN12C renal
SNB-19 CNS = test system: SNB-19 CNS
SNB-75 CNS = test system: SNB-75 CNS
SW-620 colon = test system: SW-620 colon
T-47D breast = test system: T-47D breast
TK-10 renal = test system: TK-10 renal
U251 CNS = test system: U251 CNS
UACC-257 melanoma = test system: UACC-257 melanoma
UACC-62 melanoma = test system: UACC-62 melanoma
UO-31 renal = test system: UO-31 renal
CCRF-CEM leukemia = test system: CCRF-CEM leukemia
DU-145 prostate = test system: DU-145 prostate
HL-60(TB) leukemia = test system: HL-60(TB) leukemia
MOLT-4 leukemia = test system: MOLT-4 leukemia
SR leukemia = test system: SR leukemia

Structure (SMILES): CCCCc1ccc(Nc2cc(=O)n(C)c(=O)[nH]2)cc1
- TGI (786-0 renal): > 100 µM
- TGI (A498 renal): > 100 µM
- TGI (A549 NSCLC): > 100 µM
- TGI (ACHN renal): > 100 µM
- TGI (BT-549 breast): > 100 µM
- TGI (CAKI-1 renal): > 100 µM
- TGI (COLO 205 colon): > 100 µM
- TGI (EKVX NSCLC): > 100 µM
- TGI (HCC-2998 colon): > 100 µM
- TGI (HCT-116 colon): > 100 µM
- TGI (HCT-15 colon): > 100 µM
- TGI (HOP-62 NSCLC): > 100 µM
- TGI (HOP-92 NSCLC): > 100 µM
- TGI (HS 578T breast): > 100 µM
- TGI (HT29 colon): > 100 µM
- TGI (IGROV1 ovarian): > 100 µM
- TGI (K-562 leukemia): > 100 µM
- TGI (KM12 colon): > 100 µM
- TGI (LOX IMVI melanoma): > 100 µM
- TGI (M14 melanoma): > 100 µM
- TGI (MALME-3M melanoma): > 100 µM
- TGI (MCF7 breast): 72.9 µM
- TGI (MDA-MB-231 breast): > 100 µM
- TGI (MDA-MB-435): > 100 µM
- TGI (MDA-N): > 100 µM
- TGI (NCI-H226 lung): > 100 µM
- TGI (NCI-H23 lung): > 100 µM
- TGI (NCI-H460 lung): > 100 µM
- TGI (NCI-H522 lung): > 100 µM
- TGI (NCI/ADR-RES ovarian): > 100 µM
- TGI (OVCAR-3 ovarian): > 100 µM
- TGI (OVCAR-4 ovarian): > 100 µM
- TGI (OVCAR-5 ovarian): > 100 µM
- TGI (OVCAR-8 ovarian): > 100 µM
- TGI (PC-3 prostate): > 100 µM
- TGI (RPMI-8226 leukemia): > 100 µM
- TGI (RXF 393 renal): > 100 µM
- TGI (SF-268 CNS): > 100 µM
- TGI (SF-295 CNS): > 100 µM
- TGI (SF-539 CNS): > 100 µM
- TGI (SK-MEL-2 melanoma): > 100 µM
- TGI (SK-MEL-28 melanoma): > 100 µM
- TGI (SK-MEL-5 melanoma): > 100 µM
- TGI (SK-OV-3 ovarian): > 100 µM
- TGI (SN12C renal): > 100 µM
- TGI (SNB-19 CNS): > 100 µM
- TGI (SNB-75 CNS): > 100 µM
- TGI (SW-620 colon): > 100 µM
- TGI (T-47D breast): > 100 µM
- TGI (TK-10 renal): > 100 µM
- TGI (U251 CNS): > 100 µM
- TGI (UACC-257 melanoma): > 100 µM
- TGI (UACC-62 melanoma): > 100 µM
- TGI (UO-31 renal): > 100 µM

Structure (SMILES): Cc1ccc2nc(-c3ccc(N)c(Br)c3)sc2c1
- TGI (786-0 renal): > 100 µM
- TGI (A498 renal): > 100 µM
- TGI (A549 NSCLC): > 100 µM
- TGI (ACHN renal): > 100 µM
- TGI (BT-549 breast): 35.9 µM
- TGI (CAKI-1 renal): > 100 µM
- TGI (CCRF-CEM leukemia): 45.7 µM
- TGI (COLO 205 colon): > 100 µM
- TGI (DU-145 prostate): > 100 µM
- TGI (EKVX NSCLC): 58 µM
- TGI (HCC-2998 colon): 14.8 µM
- TGI (HCT-116 colon): > 100 µM
- TGI (HCT-15 colon): > 100 µM
- TGI (HL-60(TB) leukemia): > 100 µM
- TGI (HOP-62 NSCLC): 26.2 µM
- TGI (HOP-92 NSCLC): 50.6 µM
- TGI (HS 578T breast): 43.6 µM
- TGI (HT29 colon): > 100 µM
- TGI (K-562 leukemia): > 100 µM
- TGI (KM12 colon): 30.8 µM
- TGI (LOX IMVI melanoma): 30.4 µM
- TGI (M14 melanoma): > 100 µM
- TGI (MALME-3M melanoma): > 100 µM
- TGI (MDA-MB-231 breast): 86.4 µM
- TGI (MDA-MB-435): 64.1 µM
- TGI (MDA-N): > 100 µM
- TGI (MOLT-4 leukemia): 97.5 µM
- TGI (NCI-H226 lung): > 100 µM
- TGI (NCI-H23 lung): 96.9 µM
- TGI (NCI-H460 lung): 31.5 µM
- TGI (NCI-H522 lung): 47.7 µM
- TGI (NCI/ADR-RES ovarian): > 100 µM
- TGI (OVCAR-3 ovarian): 40.1 µM
- TGI (OVCAR-4 ovarian): > 100 µM
- TGI (OVCAR-5 ovarian): > 100 µM
- TGI (OVCAR-8 ovarian): > 100 µM
- TGI (PC-3 prostate): > 100 µM
- TGI (RXF 393 renal): 50 µM
- TGI (SF-268 CNS): > 100 µM
- TGI (SF-295 CNS): > 100 µM
- TGI (SF-539 CNS): > 100 µM
- TGI (SK-MEL-2 melanoma): 73.4 µM
- TGI (SK-MEL-28 melanoma): > 100 µM
- TGI (SK-MEL-5 melanoma): > 100 µM
- TGI (SK-OV-3 ovarian): 88.4 µM
- TGI (SN12C renal): > 100 µM
- TGI (SNB-19 CNS): > 100 µM
- TGI (SR leukemia): 43.2 µM
- TGI (T-47D breast): 59.7 µM
- TGI (U251 CNS): > 100 µM
- TGI (UACC-257 melanoma): 72.2 µM
- TGI (UACC-62 melanoma): > 100 µM
- TGI (UO-31 renal): 35.4 µM

Structure (SMILES): CN1C2CCC1CC(CC(=O)NC(c1ccc(F)cc1)c1ccc(F)cc1)C2 (stereo not drawn)
- TGI (786-0 renal): > 100 µM
- TGI (A498 renal): > 100 µM
- TGI (A549 NSCLC): > 100 µM
- TGI (ACHN renal): > 100 µM
- TGI (BT-549 breast): > 100 µM
- TGI (CAKI-1 renal): > 100 µM
- TGI (CCRF-CEM leukemia): 80.6 µM
- TGI (COLO 205 colon): 44.2 µM
- TGI (DU-145 prostate): > 100 µM
- TGI (EKVX NSCLC): > 100 µM
- TGI (HCT-116 colon): > 100 µM
- TGI (HCT-15 colon): > 100 µM
- TGI (HL-60(TB) leukemia): 6.66 µM
- TGI (HOP-62 NSCLC): > 100 µM
- TGI (HOP-92 NSCLC): > 100 µM
- TGI (HS 578T breast): > 100 µM
- TGI (HT29 colon): > 100 µM
- TGI (IGROV1 ovarian): > 100 µM
- TGI (K-562 leukemia): > 100 µM
- TGI (KM12 colon): > 100 µM
- TGI (LOX IMVI melanoma): > 100 µM
- TGI (M14 melanoma): 33.7 µM
- TGI (MALME-3M melanoma): 60.4 µM
- TGI (MDA-MB-231 breast): > 100 µM
- TGI (MDA-MB-435): > 100 µM
- TGI (MDA-N): > 100 µM
- TGI (MOLT-4 leukemia): > 100 µM
- TGI (NCI-H226 lung): > 100 µM
- TGI (NCI-H23 lung): > 100 µM
- TGI (NCI-H460 lung): > 100 µM
- TGI (NCI-H522 lung): > 100 µM
- TGI (NCI/ADR-RES ovarian): > 100 µM
- TGI (OVCAR-3 ovarian): > 100 µM
- TGI (OVCAR-4 ovarian): > 100 µM
- TGI (OVCAR-5 ovarian): > 100 µM
- TGI (OVCAR-8 ovarian): > 100 µM
- TGI (PC-3 prostate): > 100 µM
- TGI (RPMI-8226 leukemia): > 100 µM
- TGI (RXF 393 renal): > 100 µM
- TGI (SF-268 CNS): > 100 µM
- TGI (SF-295 CNS): > 100 µM
- TGI (SF-539 CNS): > 100 µM
- TGI (SK-MEL-2 melanoma): 49 µM
- TGI (SK-MEL-28 melanoma): 55.1 µM
- TGI (SK-MEL-5 melanoma): 45.1 µM
- TGI (SK-OV-3 ovarian): > 100 µM
- TGI (SN12C renal): > 100 µM
- TGI (SNB-19 CNS): > 100 µM
- TGI (SNB-75 CNS): > 100 µM
- TGI (SR leukemia): 89.5 µM
- TGI (SW-620 colon): > 100 µM
- TGI (T-47D breast): > 100 µM
- TGI (TK-10 renal): > 100 µM
- TGI (U251 CNS): > 100 µM
- TGI (UACC-257 melanoma): 39.4 µM
- TGI (UO-31 renal): > 100 µM
